Where “and” joins values, the source holds several entries; their conditions need not be identical. Equal entries are not always repeated. Where two headings read alike, the source gives them in different places.
What was measured:
5-HT6 receptor [1] = target: T1, 5-HT6 receptor (Homo sapiens, UniProt P50406); experiment: Radioligand binding assay for 5-HT6 receptor ([3H]-LSD displacement); design: expressed in transfected cells; host or cells: HEK-293 (cryopreserved membranes); conditions: for Ki: competitive replacement of [3H]-LSD, ±S.E.M.
T1 sequence (P50406 whole entry): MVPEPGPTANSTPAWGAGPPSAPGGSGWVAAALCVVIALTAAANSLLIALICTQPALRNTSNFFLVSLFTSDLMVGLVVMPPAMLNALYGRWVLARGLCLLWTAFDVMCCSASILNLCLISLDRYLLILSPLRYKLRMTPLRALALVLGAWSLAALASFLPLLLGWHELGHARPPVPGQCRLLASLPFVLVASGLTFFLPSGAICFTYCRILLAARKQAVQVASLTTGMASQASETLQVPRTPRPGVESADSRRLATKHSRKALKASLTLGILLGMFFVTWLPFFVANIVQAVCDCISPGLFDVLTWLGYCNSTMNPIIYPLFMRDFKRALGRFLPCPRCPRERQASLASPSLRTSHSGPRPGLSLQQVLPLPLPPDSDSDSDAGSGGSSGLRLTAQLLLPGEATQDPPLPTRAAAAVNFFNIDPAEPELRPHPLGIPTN
Protocol: To determine the affinity for 5-HT6, the cryopreserved membranes from HEK-293 cells stably transfected with the human recombinant 5-HT6 receptor were used.[40] Preparation of the tested compounds included preparation of stock solutions in DMSO (1 mM) and subsequent serial dilutions (10^–10–10^–5 M) of tested compounds in the appropriate buffer (50 mM Tris buffer, pH 7.4, 10 mM MgCl2, 0.5 mM ethylenediaminetetraacetic acid). The serial dilutions were acquired directly on a 96-well microplate. The reaction mix included 50 μL of appropriate concentration of tested molecule, 50 μL of [^3H]LSD 2.5/2.0 nM, and 150 μL of diluted membranes. The microplate containing the reaction mix was protected with a sealing tape and incubated for 60 min at 37 °C. Quenching of the reaction mixtire included: rapid filtration through UniFilter 96 GF/B filter microplate and rapid washes using 200 μL 50 mM assay buffer and vacuum manifold and 96-well pipettor. The collected microplates were dried overnight at 37 °C. The UniFilter bottoms were sealed, and then 30 μL of Betaplate Scint liquid scintillator (PerkinElmer) was added to each well. […] The obtained data were fit to a one-site curve-fitting equation using Prism 5 software (GraphPad Software), and the Ki values were determined using the Cheng–Prusoff equation. Radioligand binding was performed in duplicates.

[2] = target: muscimol site of the GABA-A receptor; experiment: Radioligand binding assay for GABA-A receptor ([3H]muscimol displacement, rat brain homogenate); conditions: competitive replacement of [3H]muscimol; ±S.E.M.
Protocol: The study was acquired according to the earlier protocols.[39] The rats’ brains were homogenized and prepared accurately according to the previous protocol.[39] On the day of the study, brain homogenates were thawed at room temperature and “diluted” in 20 volumes of ice-cold 50 mM Tris-HCl buffer (pH 7.4) and centrifuged (20.000g, 30 min, 0–4 °C). The assay was performed directly on 96-well microplates, which contained 50 mM Tris-HCl buffer (pH 7.4) in a total volume of 300 μL. Reaction mix included 240 μL of the brain tissue suspension, 30 μL of [^3H]-muscimol, and 30 μL solution of tested compounds (administrated at various concentrations: 10^–10–10^–5 M). […] The 96-well microplates containing the reaction mix were incubated for 10 min at 0 °C, followed by rapid filtration over glass fiber filters FilterMate B (PerkinElmer, USA) using the Harvester-96 MACH III FM (Tomtec, USA). The filter mats were dried using a microwave and then placed inside a plastic bag (PerkinElmer, USA). After that, they were soaked in 10 mL of Ultima Gold MV liquid scintillation cocktail (PerkinElmer, USA). […] Ki values were estimated according to the Cheng and Prusoff equation. The study was performed in duplicates. The statistical analysis was performed using (GraphPad Prism, version 4.0, San Diego, CA, USA).

5-HT6 receptor [3] = target: T1, 5-HT6 receptor; experiment: Functional assay for 5-HT6 receptor, antagonist mode (aequorin, CHO-K1 cells); type: cell-based; design: expressed in transfected cells; host or cells: CHO-K1 (co-expressing mitochondrially targeted aequorin and G protein α16); conditions: ±S.E.M., read-out: 5-HT6 R KB
Protocol: The studies were acquired according to previous protocols.[41] All the examined compounds (novel and the reference) were dissolved in DMSO (1 mM) and diluted accordingly using the assay buffer, directly in 96-well microplate. The recombinant CHO-K1 cells expressing human GPCR, mitochondrially targeted aequorin, and the promiscuous G protein α16 specific for 5-HT6 were used for the functional assay. The cells were thawed and suspended in the appropriate buffer containing DMEM/HAM’s F12 with 0.1% protease free BSA and were then centrifuged. After adding coelenterazine h to a final concentration of 5 μM, the cell pellet was resuspended in the buffer. The cell suspension was incubated at 16 °C for 16 h while being protected from light, gently shaken, and diluted with assay buffer to a concentration of 5000 cells/mL. Following that, 50 μL of the cell suspension was introduced to preloaded white opaque 96-well microplates containing the tested molecules. This was done using the automatic injectors integrated into the radiometric and luminescence plate counter MicroBeta2 LumiJET (PerkinElmer, USA). The light emission resulting from calcium mobilization was monitored for a duration of 60 s. For examination of the antagonistic properties of tested molecule, following 30 min of incubation, the reference agonist was administrated and the light emission was detected.

[4] = system: human α1β2γ2-GABA-A receptors; experiment: Electrophysiological studies, automated patch clamp (QPatch16X), HEK293 cells; type: cell-based; conditions: agonist mode, compound at 10 μM; current amplitude normalized to 10 μM GABA response; ±S.E.M.
Protocol: Electrophysiological studies were acquired using the QPatch16X automatic patch clamp platform (Sophion Biosciences) as described before.[42],[43] […] Before the assay, cells were detached from the culture flask by treating them with TrypLE Express solution (Life Technologies) and subsequently suspended in serum-free media. The cells were loaded into a 1.5 mL microtube on the automated electrophysiology instrument, which subsequently performed a spin-down using its built-in centrifuge. Following this, the cells were washed with Ringer’s extracellular solution. The cells were moved to the pipetting wells of a 16-channel planar patch chip plate (QPlate 16X) designed for single-use. A combined suction/voltage protocol was then applied to establish gigaseals. […] During the entire whole-cell recording, the holding potential was maintained at −90 mV. […] The intracellular solution contained 140 mM CsF, 1 mM EGTA, 5 mM CsOH, 10 mM HEPES, 20 mMNaCl (pH 7.2, 320 mOsm). […] The acquired data were examined with QPatch assay software (v5.0, Sophion Biosciences)[44] and are represented as the mean of three separated measurements performed on distinct cells. The efficacy of the tested molecules was determined by calculating the baseline-corrected ratio of the maximum current amplitudes elicited by the tested compounds and the reference agonist (T1-ATG/AG1-ATG or T2-ATG/AG1-ATG). The raw current recordings were standardized and presented as a percentage of the current amplitude evoked by the reference agonist, using the QPatch assay software (v5.0, Sophion Biosciences).

female Wistar rats [5] = experiment: Forced swim test in rats; type: in vivo, rat
Protocol: (§1) Naïve female Wistar rats (weighing 180–200 g) were used in the study. The animals were housed in groups of three to four in standard Makrolon cages (37 cm × 21 cm × 15 cm) under strictly controlled laboratory conditions (ambient temperature 21–24 °C, relative humidity 45–65%) with a 12/12 h light–dark regime (light on at 6:00 a.m. and off at 6:00 p.m.). Animals had unrestricted access to tap water and food (typical pellets). Prior the experiment the animals were randomly appointed to the group. The behavioral studies were accomplished between 8:00 a.m. and 5:00 p.m. with the researcher blind to the study. The experiments were performed according to protocols approved by the Local Ethical Committee in Krakow (Approval Number 147/2018), Poland. Housing and experimental procedures were conducted under the European Union Directive of September 22, 2010 (2010/63/EU) and Polish legislation regarding animal studies. All efforts were made to minimize animal suffering and the number of animals used in the study.
(§2) Vortioxetine (Sigma, Germany) and the tested compounds (16 and 6) were dissolved in 10% cyclodextrin and administered ip 30 min before the test or during 14 consecutive days, with the last injection 60 min before the test. 10% cyclodextrin was administrated to control group.
(§3) A modified forced swim test was carried out according to Detke et al.[50],[51] First, the animals were individually placed inside Plexiglas cylinders, which were 40 cm high and 18 cm in diameter, filled with water at a temperature of 23–25 °C for 15 min. Afterward, the rats were transferred to a Plexiglas box and kept under a 60 W bulb for 30 min to dry. The day after, exactly 24 h later, the rats were once again placed in the cylinder, and their duration of immobility, swimming, and climbing was observed and recorded during a 5 min. The swimming behavior involved energetic movements such as horizontal swimming around the cylinder, while climbing activity referred to upward movements of the forepaws along the swim chamber’s side. Immobility was recorded when the rat only made necessary movements to keep its head above the water. For each test, a fresh water was provided. Open field test in rats: The test was conducted as previously reported by our research group.[52] The test was performed in a darkened room employing the Motor Monitor System (Campden Instruments, Ltd., U.K.). The system was equipped with two SmartFrame Open Field stations, each measuring 40 cm × 40 cm × 38 cm and consisting of 16 × 16 beams. These stations were placed inside sound-attenuating chambers and connected to a PC software using […]. The animals, belonging to either the vehicle-injected or drug-injected group, were individually positioned at the center of the station. The Motor Monitor System, which was automated, recorded the animal’s ambulation in both the X and Y axes, as well as the number of rearing and peeping episodes. Additionally, the total distance traveled by each animal during the 5 min test period was also recorded. Statistical analysis: Results are presented as the mean ± SEM values. They were estimated using one-way analysis of variance (ANOVA), followed by Newman–Keuls post hoc or unpaired two-tailed Student t test. Statistical significance was considered when p < 0.05 for differences between groups.

female Wistar rats [6] = experiment: Open field test in rats (locomotor activity); type: in vivo, rat; design: total distance traveled: unit not given here; conditions: chronic treatment, dose 8, ip 14 days
Protocol: as §1, §2, §3

[7] = acute, 8 mg/kg ip 30 min before test

Structure (SMILES) | Ki (5-HT6 receptor [1]; 5-HT6R Ki) [nM] | Ki (5-HT6 receptor [1]; read-out: 5-HT6R Ki) [nM] | Ki [2] [nM] | Kb (5-HT6 receptor [3]) [nM] | other results
O=c1[nH]c2c(N3CCNCC3)cccc2n1Cc1ccccc1 [Compound 2, 1-benzyl-4-(piperazin-1-yl)-1,3-dihydro-2H-benzo[d]imidazol-2-one] | 0.2 ± 0.02 |  |  |  | 
O=c1oc2c(N3CCNCC3)cccc2n1Cc1ccccc1 [Compound 3, 3-Benzyl-7-(piperazin-1-yl)benzo[d]oxazol-2(3H)-one] | 4 ± 0.2 |  |  |  | 
O=C1COc2c(N3CCNCC3)cccc2N1Cc1ccccc1 [Compound 4, 4-benzyl-8-(piperazin-1-yl)-2H-benzo[b][1,4]oxazin-3(4H)-one] | 1 ± 0.2 |  |  |  | 
c1ccc(CN2CCOc3c(N4CCNCC4)cccc32)cc1 [Compound 5, 4-(4-Benzyl-3,4-dihydro-2H-benzo[b][1,4]oxazin-8-yl)piperazin-1-ium Chloride] | 60 ± 7.5 |  |  |  | 
O=c1[nH]c2c(N3CCN(CCO)CC3)cccc2n1Cc1ccccc1 [Compound 7, 1-Benzyl-4-(4-(2-hydroxyethyl)piperazin-1-yl)-1,3-dihydro-2H-benzo[d]imidazol-2-one] |  | 40 ± 3 |  |  | 
O=c1oc2c(N3CCN(CCO)CC3)cccc2n1Cc1ccccc1 [Compound 8, 3-Benzyl-7-(4-(2-hydroxyethyl)piperazin-1-yl)benzo[d]oxazol-2(3H)-one] |  | 150 ± 7.6 |  |  | 
O=C1COc2c(N3CCN(CCO)CC3)cccc2N1Cc1ccccc1 [Compound 9, 4-Benzyl-8-(4-(2-hydroxyethyl)piperazin-1-yl)-2H-benzo[b][1,4]oxazin-3(4H)-one] |  | 4 ± 0.4 |  |  | 
OCCN1CCN(c2cccc3c2OCCN3Cc2ccccc2)CC1 [Compound 10, 2-(4-(4-Benzyl-3,4-dihydro-2H-benzo[b][1,4]oxazin-8-yl)piperazin-1-yl)ethan-1-ol] |  | 24 ± 2 |  |  | 
NCCCC(=O)OCCN1CCN(c2cccc3c2[nH]c(=O)n3Cc2ccccc2)CC1 [Compound 17, 1-(2-((4-Ammoniobutanoyl)oxy)ethyl)-4-(1-benzyl-2-oxo-2,3-dihydro-1H-benzo[d]imidazol-4-yl)piperazin-1-ium Dichloride] |  | 57 ± 5.9 | 592 ± 52.5 | 193 ± 3.5 | 
Cl.Cl.NCCCC(=O)OCCN1CCN(c2cccc3c2oc(=O)n3Cc2ccccc2)CC1 [Compound 18, 1-(2-((4-Ammoniobutanoyl)oxy)ethyl)-4-(3-benzyl-2-oxo-2,3-dihydrobenzo[d]oxazol-7-yl)piperazin-1-ium Dichloride] |  | 130 ± 12 | 229 ± 28 | 245 ± 0.7 | [%] of 10 μM GABA activity [4]: 14.0% and 14.0 ± 2.6%
Cl.Cl.NCCCC(=O)OCCN1CCN(c2cccc3c2OCC(=O)N3Cc2ccccc2)CC1 [Compound 19, 1-(2-((4-Ammoniobutanoyl)oxy)ethyl)-4-(4-benzyl-3-oxo-3,4-dihydro-2H-benzo[b][1,4]oxazin-8-yl)piperazin-1-ium Dichloride] |  | 25 ± 1 | 247 ± 24.7 | 7 ± 0.1 | fold higher 5-HT6 affinity compared to 18 (5-HT6 receptor [1]; ratio of Ki values): 5 fold; [%] of 10 μM GABA activity [4]: 9.5% and 9.5 ± 3.5%
NCCCC(=O)OCCN1CCN(c2cccc3c2OCCN3Cc2ccccc2)CC1 [Compound 20, 1-(2-((4-Ammoniobutanoyl)oxy)ethyl)-4-(4-benzyl-3,4-dihydro-2H-benzo[b][1,4]oxazin-8-yl)piperazin-1-ium Dichloride] |  | 1260 ± 82 | 184 ± 4 | 1670 ± 1 | 
Cc1ccc(Sc2ccccc2N2CCNCC2)c(C)c1 [vortioxetine, Vortioxetine, reference compound] |  |  |  |  | climbing (female Wistar rats [5]; [7]): had no impact; prolongation of swimming time (female Wistar rats [5]; [7]): 88.1%; reduction of immobility time (female Wistar rats [5]; [7]): 24.7%; decrease of immobility time vs vehicle-treated group (female Wistar rats [5]; subchronic, 8 mg/kg ip for 14 days, test 60 min after last injection): 19.5%; X ambulation (female Wistar rats [6]): 260.1; Y ambulation (female Wistar rats [6]): 265.9; rearing (female Wistar rats [6]): 50.6; total distance traveled (female Wistar rats [6]): 2753

Reference: publication PMC10119930, “Dual Molecules Targeting 5-HT6 and GABA-A Receptors as a New Approach to Combat Depression Associated with Neuroinflammation” (ACS Chemical Neuroscience, 2023)
